Details: Liquid, Vibrating tube method

Cc1ccc(O)cc1 [4-methylphenol]
Details	mass density [kg/m3]
312.9 K, 1002 kPa	1019.4
312.9 K, 2016 kPa	1020
312.9 K, 3017 kPa	1020.6
312.9 K, 4016 kPa	1021.1
312.9 K, 5002 kPa	1021.7
312.9 K, 6010 kPa	1022.2
312.9 K, 7000 kPa	1022.8
312.9 K, 8006 kPa	1023.3
312.9 K, 9001 kPa	1023.9
312.9 K, 10002 kPa	1024.4
312.9 K, 11006 kPa	1024.9
312.9 K, 12002 kPa	1025.5
312.9 K, 13015 kPa	1026
312.9 K, 14007 kPa	1026.6
312.9 K, 15006 kPa	1027.1
312.9 K, 16019 kPa	1027.6
312.9 K, 17004 kPa	1028.1
312.9 K, 18011 kPa	1028.6
312.9 K, 19009 kPa	1029.2
312.9 K, 20005 kPa	1029.7
312.9 K, 21008 kPa	1030.2
312.9 K, 22004 kPa	1030.7
312.9 K, 23023 kPa	1031.2
312.9 K, 24004 kPa	1031.7
312.9 K, 25006 kPa	1032.2
322.78 K, 1019 kPa	1011.6
322.78 K, 2015 kPa	1012.2
322.78 K, 3002 kPa	1012.8
322.78 K, 4013 kPa	1013.4
322.78 K, 5011 kPa	1013.9
322.78 K, 6018 kPa	1014.5
322.78 K, 7022 kPa	1015.1
322.78 K, 8001 kPa	1015.7
322.78 K, 9015 kPa	1016.3
322.78 K, 10006 kPa	1016.8
322.78 K, 11002 kPa	1017.4
322.78 K, 12018 kPa	1017.9
322.78 K, 13002 kPa	1018.4
322.78 K, 14016 kPa	1019
322.78 K, 15001 kPa	1019.5
322.78 K, 16000 kPa	1020.1
322.78 K, 17001 kPa	1020.6
322.78 K, 18029 kPa	1021.2
322.78 K, 19015 kPa	1021.7
322.78 K, 20011 kPa	1022.2
322.78 K, 21022 kPa	1022.8
322.78 K, 22002 kPa	1023.3
322.78 K, 23006 kPa	1023.8
322.78 K, 24010 kPa	1024.4
322.78 K, 25023 kPa	1024.9
332.54 K, 1040 kPa	1003.7
332.54 K, 2019 kPa	1004.3
332.54 K, 3013 kPa	1005
332.54 K, 4019 kPa	1005.6
332.54 K, 5001 kPa	1006.2
332.54 K, 6001 kPa	1006.8
332.54 K, 7002 kPa	1007.5
332.54 K, 8041 kPa	1008.1
332.54 K, 9000 kPa	1008.7
332.54 K, 10001 kPa	1009.2
332.54 K, 11006 kPa	1009.7
332.54 K, 12001 kPa	1010.4
332.54 K, 13008 kPa	1010.9
332.54 K, 14004 kPa	1011.5
332.54 K, 15003 kPa	1012.1
332.54 K, 16015 kPa	1012.7
332.54 K, 17011 kPa	1013.3
332.54 K, 18014 kPa	1013.9
332.54 K, 19014 kPa	1014.4
332.54 K, 20009 kPa	1014.9
332.54 K, 21013 kPa	1015.4
332.54 K, 22007 kPa	1016
332.54 K, 23000 kPa	1016.6
332.54 K, 24001 kPa	1017.1
332.54 K, 25032 kPa	1017.7
342.37 K, 1001 kPa	995.7
342.37 K, 2002 kPa	996.4
342.37 K, 3004 kPa	997.1
342.37 K, 4025 kPa	997.7
342.37 K, 5036 kPa	998.2
342.37 K, 6032 kPa	998.8
342.37 K, 7001 kPa	999.3
342.37 K, 8020 kPa	999.9
342.37 K, 9003 kPa	1000.6
342.37 K, 10002 kPa	1001.3
342.37 K, 11036 kPa	1001.9
342.37 K, 12001 kPa	1002.6
342.37 K, 13020 kPa	1003.2
342.37 K, 14019 kPa	1003.9
342.37 K, 15007 kPa	1004.5
342.37 K, 16000 kPa	1005.1
342.37 K, 17022 kPa	1005.6
342.37 K, 18014 kPa	1006.2
342.37 K, 19033 kPa	1006.8
342.37 K, 20005 kPa	1007.4
342.37 K, 21005 kPa	1007.9
342.37 K, 22010 kPa	1008.4
342.37 K, 22962 kPa	1009
342.37 K, 24021 kPa	1009.7
342.37 K, 25017 kPa	1010.2
352.15 K, 1023 kPa	987.9
352.15 K, 2007 kPa	988.5
352.15 K, 3000 kPa	989.1
352.15 K, 4003 kPa	989.8
352.15 K, 5001 kPa	990.4
352.15 K, 6009 kPa	991.1
352.15 K, 7001 kPa	991.7
352.15 K, 8037 kPa	992.4
352.15 K, 9008 kPa	993
352.15 K, 10040 kPa	993.7
352.15 K, 11006 kPa	994.3
352.15 K, 12001 kPa	994.9
352.15 K, 13001 kPa	995.5
352.15 K, 14009 kPa	996.2
352.15 K, 15000 kPa	996.8
352.15 K, 16010 kPa	997.4
352.15 K, 17028 kPa	998
352.15 K, 18020 kPa	998.6
352.15 K, 19045 kPa	999.3
352.15 K, 20018 kPa	1000
352.15 K, 21038 kPa	1000.5
352.15 K, 22000 kPa	1001.1
352.15 K, 23065 kPa	1001.8
352.15 K, 24024 kPa	1002.4
352.15 K, 25039 kPa	1002.9
361.9 K, 1017 kPa	979.6
361.9 K, 1991 kPa	980.3
361.9 K, 3004 kPa	981
361.9 K, 4027 kPa	981.5
361.9 K, 4992 kPa	982.3
361.9 K, 6000 kPa	983.1
361.9 K, 7033 kPa	983.6
361.9 K, 8010 kPa	984.4
361.9 K, 9001 kPa	985
361.9 K, 9998 kPa	985.8
361.9 K, 10994 kPa	986.5
361.9 K, 11976 kPa	987
361.9 K, 12949 kPa	987.7
361.9 K, 14010 kPa	988.3
361.9 K, 15017 kPa	989
361.9 K, 15992 kPa	989.6
361.9 K, 16992 kPa	990.3
361.9 K, 18007 kPa	990.8
361.9 K, 19034 kPa	991.6
361.9 K, 19992 kPa	992.1
361.9 K, 21000 kPa	992.9
361.9 K, 22059 kPa	993.4
361.9 K, 23020 kPa	994.1
361.9 K, 24014 kPa	994.8
361.9 K, 25002 kPa	995.3
